Measurements from patent publication US20190161499A1, “PESTICIDALLY ACTIVE 1,2,4-TRIAZOLE DERIVATIVES” (SYNGENTA PARTICIPATIONS AG, priority 2015, published 2019).

Experiments:
Format in all cases: in vivo
[1] = system: Spodoptera littoralis (Egyptian Cotton Leaf Worm); assay: Comparison: insecticidal activity against Spodoptera littoralis; settings: 72 h, 3 days after infestation
Protocol: (§1) Compound B is disclosed in WO2013/063282 as an example on page 114 (Table 4, M is CH(Me), Rx=2-F, Ry=4-Cl) and compound C is disclosed in WO 2013/173218 as example on page 123 (Table 14, M is CH(Me), R4a=2-F, R4b=4-Cl). The activities of compounds B and C to treat different pests are compared with the activities of compound A according to the present invention. The tests are carried out at different concentrations (ppm).
a) Insecticidal Activity Against Spodoptera littoralis (Egyptian Cotton Leaf Worm)
Cotton leaf discs were placed onto agar in 24-well microtiter plates and sprayed with aqueous test solutions prepared from 10,000 ppm DMSO stock solutions. After drying the leaf discs were infested with five L1 larvae. The samples were assessed for mortality 3 days after infestation.

[2] = system: Plutella xylostella (Diamond Back Moth); assay: Comparison: insecticidal activity against Plutella xylostella; settings: 120 h, 5 days after infestation
Protocol: as §1
b) Insecticidal Activity Against Plutella xylostella (Diamond Back Moth):
(§2) 24-well microtiter plates with artificial diet were treated with aqueous test solutions prepared from 10,000 ppm DMSO stock solutions by pipetting. After drying, the plates were infested with L2 larvae (10 to 15 per well). The samples were assessed for mortality and growth inhibition in comparison to untreated samples 5 days after infestation.

[3] = system: Diabrotica Balteata (Corn Root Worm); assay: Comparison: insecticidal activity against Diabrotica balteata; settings: 96 h, 4 days after infestation
Protocol: as §1
c) Insecticidal Activity Against Diabrotica Balteata (Corn Root Worm):
as §2, with “Maize sprouts, placed on an agar layer in 24-well” for “24-well”, “plates” for “plates with artificial diet”, “spraying.” for “pipetting.”, “(6” for “(10”, “10” for “15”, “4” for “5”

[4] = system: Spodoptera littoralis (Egyptian Cotton Leaf Worm); assay: Spodoptera littoralis cotton leaf disc spray test; settings: foliar, 72 h, application rate 200 ppm, L1 larvae, 3 days after infestation, read-out: control (at least one of mortality, anti-feedant effect, growth inhibition)
Protocol: Spodoptera littoralis (Egyptian Cotton Leaf Worm)
Cotton leaf discs were placed on agar in 24-well microtiter plates and sprayed with aqueous test solutions prepared from 10,000 ppm DMSO stock solutions. After drying, the leaf discs were infested with five L1 larvae. The samples were assessed for mortality, anti-feedant effect, and growth inhibition in comparison to untreated samples 3 days after infestation. Control of Spodoptera littoralis by a test sample is when at least one of mortality, anti-feedant effect, and growth inhibition is higher than the untreated sample.

[5] = system: Plutella xylostella (Diamond Back Moth); assay: whole plant or invertebrate; settings: 120 h, application rate 200 ppm, L2 larvae, 5 days after infestation, read-out: effect in at least one of the two categories (mortality or growth inhibition)
Protocol: Example B2: Plutella xylostella (Diamond Back Moth)
as §2

[6] = system: Diabrotica Balteata (Corn Root Worm); assay: whole plant or invertebrate; settings: 96 h, application rate 200 ppm, L2 larvae, 4 days after infestation, read-out: effect in at least one of the two categories (mortality or growth inhibition)
Protocol: Example B3: Diabrotica Balteata (Corn Root Worm)
as §2, with “Maize sprouts, placed on an agar layer in 24-well” for “24-well”, “plates” for “plates with artificial diet”, “spraying.” for “pipetting.”, “(6” for “(10”, “10” for “15”, “4” for “5”

SMILES | percent control (mortality, anti-feedant effect or growth inhibition) at 200 ppm [4] | percent effect (mortality or growth inhibition) at 200 ppm [5] | percent effect (mortality or growth inhibition) at 200 ppm [6] | further results
CC1CCN(Cc2nc(-c3ccc(Cl)cc3)nn2-c2ccccc2F)CC1 [A] | – | – | – | mortality at 12.5 ppm [1]: 100%; mortality at 50 ppm [1]: 100%; mortality at 200 ppm [1]: 100%; mortality at 12.5 ppm [2]: 50%; mortality at 50 ppm [2]: 100%; mortality at 200 ppm [2]: 100%; mortality at 12.5 ppm [3]: 100%; mortality at 50 ppm [3]: 100%; mortality at 200 ppm [3]: 100%
CC1CCN(Cc2cn(-c3ccc(Cl)cc3)nc2-c2ccccc2F)CC1 [Compound B] | – | – | – | mortality at 12.5 ppm [1]: 0%; mortality at 50 ppm [1]: 0%; mortality at 200 ppm [1]: 100%; mortality at 12.5 ppm [2]: 0%; mortality at 50 ppm [2]: 0%; mortality at 200 ppm [2]: 0%; mortality at 12.5 ppm [3]: 0%; mortality at 50 ppm [3]: 100%; mortality at 200 ppm [3]: 100%
CC1CCN(Cc2nn(-c3ccc(Cl)cc3)nc2-c2ccccc2F)CC1 [Compound C] | – | – | – | mortality at 12.5 ppm [1]: 0%; mortality at 50 ppm [1]: 0%; mortality at 200 ppm [1]: 50%; mortality at 12.5 ppm [2]: 0%; mortality at 50 ppm [2]: 0%; mortality at 200 ppm [2]: 0%; mortality at 12.5 ppm [3]: 0%; mortality at 50 ppm [3]: 100%; mortality at 200 ppm [3]: 100%
Fc1ccccc1-n1nc(-c2ccc(Cl)c(Cl)c2)nc1CN1CCC(c2ncccn2)CC1 [Example 1.20] | ≥ 80% | ≥ 80% | ≥ 80% | –
Fc1cccc(F)c1-n1nc(-c2ccc(C(F)(F)F)cc2)nc1CN1CCC(c2ncccn2)CC1 [Example 1.21] | ≥ 80% | ≥ 80% | ≥ 80% | –
Fc1ccccc1-n1nc(-c2ccc(C(F)(F)F)cc2)nc1CN1CCC(c2ncccn2)CC1 [Example 1.26] | ≥ 80% | ≥ 80% | ≥ 80% | –
Fc1ccc(-c2nc(CN3CCC(c4ncccn4)CC3)n(-c3ccc(F)cc3)n2)cc1 [Example 1.29] | ≥ 80% | ≥ 80% | ≥ 80% | –
Fc1ccc(-n2nc(-c3ccc(Cl)cc3)nc2CN2CCC(c3ncccn3)CC2)c(F)c1 [Example 1.30] | ≥ 80% | ≥ 80% | ≥ 80% | –
CC1(C)CCN(Cc2nc(-c3ccc(Cl)cc3)nn2-c2ccccc2F)CC1 [Example 1.35] | ≥ 80% | ≥ 80% | ≥ 80% | –
Fc1ccccc1-n1nc(-c2cccc(C(F)(F)F)c2)nc1CN1CCC(c2ncccn2)CC1 [Example 1.38] | ≥ 80% | ≥ 80% | ≥ 80% | –
Fc1ccccc1-n1nc(-c2ccc(Cl)cc2)nc1CN1CCC(c2ccccc2)CC1 [Example 1.43] | ≥ 80% | ≥ 80% | ≥ 80% | –
CC1CCN(Cc2nc(-c3ccc(Cl)cc3)nn2-c2ccccc2F)CC1 [Example 1.46] | ≥ 80% | ≥ 80% | ≥ 80% | –
Clc1ccc(-c2nc(CN3CCC(c4ncccn4)CC3)n(-c3cccc(Cl)c3Cl)n2)cc1 [Example 1.55] | ≥ 80% | ≥ 80% | ≥ 80% | –
Clc1ccc(-c2nc(CN3CCC(c4ncccn4)CC3)n(Cc3ccccc3)n2)cc1 [Example 1.56] | ≥ 80% | ≥ 80% | ≥ 80% | –
Clc1ccc(-c2nc(CN3CCC(c4ncccn4)CC3)n(-c3ccccc3)n2)cc1 [Example 1.61] | ≥ 80% | ≥ 80% | ≥ 80% | –
Cc1ccccc1-n1nc(-c2ccc(Cl)cc2)nc1CN1CCC(c2ncccn2)CC1 [Example 1.62] | ≥ 80% | ≥ 80% | ≥ 80% | –
Clc1ccc(-c2nc(CN3CCC(c4ncccn4)CC3)n(-c3ccc(Cl)cc3)n2)cc1 [Example 1.66] | ≥ 80% | ≥ 80% | ≥ 80% | –
COc1ccccc1-n1nc(-c2ccc(Cl)cc2)nc1CN1CCC(c2ncccn2)CC1 [Example 1.70] | ≥ 80% | ≥ 80% | ≥ 80% | –
Clc1ccc(-c2nc(CN3CCC(c4ncccn4)CC3)n(-c3ccc(Br)cc3)n2)cc1 [Example 1.76] | ≥ 80% | ≥ 80% | ≥ 80% | –
Clc1ccc(-c2nc(CN3CCC(c4ncccn4)CC3)n(-c3c(Cl)cc(Cl)cc3Cl)n2)cc1 [Example 1.77] | ≥ 80% | ≥ 80% | ≥ 80% | –
Clc1ccc(-c2nc(CN3CCC(c4ncccn4)CC3)n(-c3ccccn3)n2)cc1 [Example 1.78] | ≥ 80% | ≥ 80% | ≥ 80% | –
Fc1cccc(-n2nc(-c3ccc(Cl)cc3)nc2CN2CCC(c3ncccn3)CC2)c1 [Example 1.80] | ≥ 80% | ≥ 80% | ≥ 80% | –
Clc1ccc(-c2nc(CN3CCC(c4ncccn4)CC3)n(-c3ccccc3Cl)n2)cc1 [Example 1.83] | ≥ 80% | ≥ 80% | ≥ 80% | –
Cc1c(Cl)cccc1-n1nc(-c2ccc(Cl)cc2)nc1CN1CCC(c2ncccn2)CC1 [Example 1.84] | ≥ 80% | ≥ 80% | ≥ 80% | –
Cc1cc(Cl)ccc1-n1nc(-c2ccc(Cl)cc2)nc1CN1CCC(c2ncccn2)CC1 [Example 1.85] | ≥ 80% | ≥ 80% | ≥ 80% | –
Cc1nccc(C2CCN(Cc3nc(-c4ccc(Cl)cc4)nn3-c3ccccc3F)CC2)n1 [Example 1.110] | ≥ 80% | ≥ 80% | ≥ 80% | –
Fc1ccccc1-n1nc(-c2ccc(Cl)cc2)nc1CN1CCC(c2ccon2)CC1 [Example 1.120] | ≥ 80% | ≥ 80% | ≥ 80% | –
Fc1ccc(C2CCN(Cc3nc(-c4ccc(Cl)cc4)nn3-c3ccccc3F)CC2)nc1 [Example 1.122] | ≥ 80% | ≥ 80% | ≥ 80% | –
Fc1ccccc1-n1nc(-c2ccc(Cl)cc2)nc1CN1CCC(c2ncccc2Cl)CC1 [Example 1.126] | ≥ 80% | ≥ 80% | ≥ 80% | –
COC[C@@H]1CCCN1Cc1nc(-c2ccc(Cl)cc2)nn1-c1ccccc1F [Example 5.28] | ≥ 80% | ≥ 80% | ≥ 80% | –
